Data from article PMC11822212, “High-throughput screening identifies Aurora kinase B as a critical therapeutic target for Merkel cell carcinoma” (Nature Communications, 2025).

What was measured:
Assay type in all cases: cell-based, human
[1] = test system: MCC13 cells (VN-MCC); assay: qHTS cell viability (CellTiter-Glo, 72 h; primary and follow-up small molecule screen); conditions: MCC13, 72h
[2] = test system: MCC26 cells (VN-MCC); assay: as above; conditions: MCC26, 72h
[3] = test system: UISO cells (VN-MCC); assay: as above; conditions: UISO, 72h
[4] = test system: WAGA cells (VP-MCC); assay: as above; conditions: WAGA, 72h
[5] = test system: MKL-1 cells (VP-MCC); assay: as above; conditions: MKL1, 72h
[6] = test system: MKL-2 cells (VP-MCC); assay: as above; conditions: MKL2, 72h
[7] = test system: VP-MCC cell lines (WAGA, MKL-1, MKL-2); assay: qHTS cell viability, VP-MCC cell lines as a group (mean AUC, VP.MCC.avg); conditions: re-tested in triplicate, follow-up screen

## CCS(=O)(=O)c1cccc(-c2cc(C(=O)NC3CCN(C)CC3)c(C)c3[nH]c4ncc(C)cc4c23)c1 [TAK-901, reference compound]
[1]; Log (M) -5.33646
  Percent viability: 26.1%
[1]; Log (M) -5.81358
  Percent viability: 79.3%
[1]; Log (M) -6.2907
  Percent viability: 86.5%
[1]; Log (M) -6.76782
  Percent viability: 99.0%
[1]; Log (M) -7.24494
  Percent viability: 119.7%
[1]; Log (M) -7.72207
  Percent viability: 113.0%
[1]; Log (M) -8.19919
  Percent viability: 118.4%
[1]; Log (M) -8.67631
  Percent viability: 116.9%
[1]; Log (M) -9.15343
  Percent viability: 104.5%
[1]; Log (M) -9.63055
  Percent viability: 119.9%
[1]; Log (M) -10.1077
  Percent viability: 98.3%
[2]; Log (M) -5.33646
  Percent viability: 25.9%
[2]; Log (M) -5.81358
  Percent viability: 20.6%
[2]; Log (M) -6.2907
  Percent viability: 33.0%
[2]; Log (M) -6.76782
  Percent viability: 64.5%
[2]; Log (M) -7.24494
  Percent viability: 80.5%
[2]; Log (M) -7.72207
  Percent viability: 93.5%
[2]; Log (M) -8.19919
  Percent viability: 87.4%
[2]; Log (M) -8.67631
  Percent viability: 96.2%
[2]; Log (M) -9.15343
  Percent viability: 90.5%
[2]; Log (M) -9.63055
  Percent viability: 91.5%
[2]; Log (M) -10.1077
  Percent viability: 63.2%
[3]; Log (M) -5.33646
  Percent viability: 2.3%
[3]; Log (M) -5.81358
  Percent viability: 2.9%
[3]; Log (M) -6.2907
  Percent viability: 16.4%
[3]; Log (M) -6.76782
  Percent viability: 39.6%
[3]; Log (M) -7.24494
  Percent viability: 65.2%
[3]; Log (M) -7.72207
  Percent viability: 80.6%
[3]; Log (M) -8.19919
  Percent viability: 77.5%
[3]; Log (M) -8.67631
  Percent viability: 101.9%
[3]; Log (M) -9.15343
  Percent viability: 102.4%
[3]; Log (M) -9.63055
  Percent viability: 103.6%
[3]; Log (M) -10.1077
  Percent viability: 103.5%
[4]; Log (M) -5.33646
  Percent viability: 14.8%
[4]; Log (M) -5.81358
  Percent viability: 27.2%
[4]; Log (M) -6.2907
  Percent viability: 24.4%
[4]; Log (M) -6.76782
  Percent viability: 45.2%
[4]; Log (M) -7.24494
  Percent viability: 29.7%
[4]; Log (M) -7.72207
  Percent viability: 26.6%
[4]; Log (M) -8.19919
  Percent viability: 95.5%
[4]; Log (M) -8.67631
  Percent viability: 121.9%
[4]; Log (M) -9.15343
  Percent viability: 112.0%
[4]; Log (M) -9.63055
  Percent viability: 114.1%
[4]; Log (M) -10.1077
  Percent viability: 123.7%
[5]; Log (M) -5.33646
  Percent viability: 3.5%
[5]; Log (M) -5.81358
  Percent viability: 27.5%
[5]; Log (M) -6.2907
  Percent viability: 14.2%
[5]; Log (M) -6.76782
  Percent viability: 38.9%
[5]; Log (M) -7.24494
  Percent viability: 42.7%
[5]; Log (M) -7.72207
  Percent viability: 48.2%
[5]; Log (M) -8.19919
  Percent viability: 61.6%
[5]; Log (M) -8.67631
  Percent viability: 102.5%
[5]; Log (M) -9.15343
  Percent viability: 100.0%
[5]; Log (M) -9.63055
  Percent viability: 106.9%
[5]; Log (M) -10.1077
  Percent viability: 62.6%
[6]; Log (M) -5.33646
  Percent viability: 3.8%
[6]; Log (M) -5.81358
  Percent viability: 12.3%
[6]; Log (M) -6.2907
  Percent viability: 44.7%
[6]; Log (M) -6.76782
  Percent viability: 52.1%
[6]; Log (M) -7.24494
  Percent viability: 44.0%
[6]; Log (M) -7.72207
  Percent viability: 44.3%
[6]; Log (M) -8.19919
  Percent viability: 48.4%
[6]; Log (M) -8.67631
  Percent viability: 94.9%
[6]; Log (M) -9.15343
  Percent viability: 110.4%
[6]; Log (M) -9.63055
  Percent viability: 106.9%
[6]; Log (M) -10.1077
  Percent viability: 102.9%
[7]
  VP-MCC viability (in words): consistently and potently reduced VP-MCC viability

## O=C(Nc1cccc(Cl)c1)Nc1ncc(CCNc2ncnc3ccsc23)s1 [SNS-314, reference compound]
[1]; Log (M) -5.33646
  Percent viability: 49.0%
[1]; Log (M) -5.81358
  Percent viability: 56.7%
[1]; Log (M) -6.2907
  Percent viability: 82.7%
[1]; Log (M) -6.76782
  Percent viability: 93.1%
[1]; Log (M) -7.24494
  Percent viability: 90.9%
[1]; Log (M) -7.72207
  Percent viability: 100.8%
[1]; Log (M) -8.19919
  Percent viability: 94.5%
[1]; Log (M) -8.67631
  Percent viability: 106.6%
[1]; Log (M) -9.15343
  Percent viability: 125.4%
[1]; Log (M) -9.63055
  Percent viability: 116.5%
[1]; Log (M) -10.1077
  Percent viability: 92.5%
[2]; Log (M) -5.33646
  Percent viability: 72.0%
[2]; Log (M) -5.81358
  Percent viability: 84.0%
[2]; Log (M) -6.2907
  Percent viability: 86.8%
[2]; Log (M) -6.76782
  Percent viability: 90.3%
[2]; Log (M) -7.24494
  Percent viability: 93.9%
[2]; Log (M) -7.72207
  Percent viability: 97.6%
[2]; Log (M) -8.19919
  Percent viability: 94.0%
[2]; Log (M) -8.67631
  Percent viability: 99.1%
[2]; Log (M) -9.15343
  Percent viability: 95.5%
[2]; Log (M) -9.63055
  Percent viability: 91.7%
[2]; Log (M) -10.1077
  Percent viability: 91.9%
[3]; Log (M) -5.33646
  Percent viability: 21.7%
[3]; Log (M) -5.81358
  Percent viability: 56.9%
[3]; Log (M) -6.2907
  Percent viability: 70.9%
[3]; Log (M) -6.76782
  Percent viability: 75.0%
[3]; Log (M) -7.24494
  Percent viability: 93.3%
[3]; Log (M) -7.72207
  Percent viability: 86.0%
[3]; Log (M) -8.19919
  Percent viability: 89.1%
[3]; Log (M) -8.67631
  Percent viability: 101.5%
[3]; Log (M) -9.15343
  Percent viability: 108.7%
[3]; Log (M) -9.63055
  Percent viability: 96.8%
[3]; Log (M) -10.1077
  Percent viability: 98.0%
[4]; Log (M) -5.33646
  Percent viability: 42.9%
[4]; Log (M) -5.81358
  Percent viability: 32.8%
[4]; Log (M) -6.2907
  Percent viability: 39.2%
[4]; Log (M) -6.76782
  Percent viability: 41.9%
[4]; Log (M) -7.24494
  Percent viability: 24.7%
[4]; Log (M) -7.72207
  Percent viability: 26.4%
[4]; Log (M) -8.19919
  Percent viability: 38.2%
[4]; Log (M) -8.67631
  Percent viability: 100.0%
[4]; Log (M) -9.15343
  Percent viability: 100.0%
[4]; Log (M) -9.63055
  Percent viability: 102.6%
[4]; Log (M) -10.1077
  Percent viability: 100.0%
[5]; Log (M) -5.33646
  Percent viability: 37.7%
[5]; Log (M) -5.81358
  Percent viability: 37.4%
[5]; Log (M) -6.2907
  Percent viability: 42.7%
[5]; Log (M) -6.76782
  Percent viability: 49.2%
[5]; Log (M) -7.24494
  Percent viability: 26.9%
[5]; Log (M) -7.72207
  Percent viability: 28.2%
[5]; Log (M) -8.19919
  Percent viability: 56.1%
[5]; Log (M) -8.67631
  Percent viability: 100.9%
[5]; Log (M) -9.15343
  Percent viability: 107.4%
[5]; Log (M) -9.63055
  Percent viability: 103.4%
[5]; Log (M) -10.1077
  Percent viability: 99.7%
[6]; Log (M) -5.33646
  Percent viability: 20.8%
[6]; Log (M) -5.81358
  Percent viability: 47.8%
[6]; Log (M) -6.2907
  Percent viability: 56.2%
[6]; Log (M) -6.76782
  Percent viability: 47.9%
[6]; Log (M) -7.24494
  Percent viability: 43.4%
[6]; Log (M) -7.72207
  Percent viability: 52.1%
[6]; Log (M) -8.19919
  Percent viability: 55.1%
[6]; Log (M) -8.67631
  Percent viability: 62.3%
[6]; Log (M) -9.15343
  Percent viability: 100.0%
[6]; Log (M) -9.63055
  Percent viability: 104.9%
[6]; Log (M) -10.1077
  Percent viability: 91.4%
[7]
  VP-MCC viability (in words): consistently and potently reduced VP-MCC viability
